Measured values as given in patent US20250241996A1, “COMBINATORIAL, AND ROTATIONAL COMBINATORIAL THERAPIES” (Starrock Pharma Inc., priority 2022, published 2025).
Values joined by “and” are separate entries in the source; they are usually repeats but may differ in a detail not shown here. Equal entries are not always repeated. Where two headings read alike, the source gives them in different places.

Assays:
[1] = Side effects and tolerability during the combinatorial weight loss regimen (Example 2)
Method: Subjects were seen once weekly for the first 4 weeks, and then once every two weeks, for six visits, for a total of 10 visits over 16 weeks. Vital signs and side effects were assessed at each visit.
Subjects were administered or self-administered the medications in the protocol by the appropriate route (i.e., subcutaneous injection or oral tablet/capsule) for […]. Subjects initially were administered a combination of: 1) a GLP-1 agonist (sold under trademarks Trulicity®, B-cise®, Ozempic®, and Victoza®), 2) Phentermine, 3) Liothyronine, 4) topiramate (sold under the trademark Topamax® carbonic anhydrase inhibitor), and 5) Sermorelin. The starting dosages are listed below in Table 17. The dosages were adjusted throughout the treatment period based on the subject response (i.e., weight loss), tolerability, volume of distribution, subject weight, and at the discretion of the treating physician. For example, the dosage of the GLP-1 agonists Trulicity® and Ozempic® was adjusted depending on the response to the medications. The dosage of the Bydureon BCcise® GLP-1 agonist was not adjusted since it is only produced in a 2 mg injectable dose. Phentermine was increased depending on subject response, to, for example, one 37.5 mg tablet in the morning and one-half tablet ([…]) at 2 p.m. […] If no progression was noted on the initial medications listed above, then the following medications were added to the protocol: Acarbose, Januvia® dipeptidyl peptidase-4 (DPP-4) inhibitor, Invokana® sodium-glucose co-transporter 2 (SGLT2) inhibitor, and Farxiga® (dapagliflozin) in the dosages listed in Table 17, below. For example, if weight loss progress was slow and a subject was consuming large amounts of carbohydrate-rich foods, the alpha-glucosidase inhibitor, Acarbose, was added to the regimen. […] This was added in addition to medications i-iv and ix, below. The regimen provided a minimum of four medications, and more medications were added and/or the dosages were modified as required in subsequent visits.
In other examples, the regimen began with administration of medications i-iv and ix and other medications were added; additional medications were administered at week 2 or week 7, for example, if the subject was not responding and needed an extra pharmacological ‘push.’
As noted above, the medication dosages were adjusted throughout the treatment period as needed, and as agreed to between the treating physician and the subject. […] For larger subjects (i.e., starting weight over 300 pounds) who were losing less than 6 pounds per week, medication dosages were increased or additional medications were added to the regimen. The hierarchy of decision making included 1) increase the dosage of the medications to the maximum allowable dosage or to the level of tolerability of the medication; and then 2) add a fifth or sixth medication, as needed to increase weight loss.

[2] = cited from earlier work
[3] = cited from earlier work; remark: listed apart in the source
[4] = cited from earlier work; remark: listed apart in the source
[5] = cited from earlier work; remark: listed apart in the source
[6] = after 36 weeks, cited from earlier work

C[C@H]1O[C@H](O[C@H]2[C@H](O)[C@@H](O)[C@@H](O[C@H]3[C@H](O)[C@@H](O)C(O)O[C@@H]3CO)O[C@@H]2CO)[C@H](O)[C@@H](O)[C@@H]1N[C@H]1C=C(CO)[C@@H](O)[C@H](O)[C@H]1O (some centres unmarked) [Acarbose]
Side effect(s) ([1]; subject 4, dosages of Table 24): Mild

Fc1ccccc1Nc1nc2nonc2nc1Nc1ccccc1F [BAM15, (2-fluorophenyl){6-[(2-fluorophenyl)amino](1,2,5-oxadiazolo [3,4e]pyrazin-5-yl)}amine]
diet-induced obesity and insulin resistance ([2]; orally administered, mice): reverses diet-induced obesity and insulin resistance in mice

CC(NC(C)(C)C)C(=O)c1cccc(Cl)c1 (centres unmarked) [Bupropion]
Side effect(s) ([1]; in vivo): None

O=[N+]([O-])c1ccc(O)c([N+](=O)[O-])c1 [DNP, 2,4-dinitrophenol]
toxicity ([3]; tested clinically): limited utility owing to toxicity

CCN(CC)C(C)C(=O)c1ccccc1 (centres unmarked) [Diethylproprion]
Side effect(s) ([1]; subject 2, dosages of Table 20): None

C[C@H]1CNCCc2ccc(Cl)cc21 [Locasarin]
Weight loss ([4]; Duration 56 weeks): 5.8%

O=C1CC[C@@]2(O)[C@H]3Cc4ccc(O)c5c4[C@@]2(CCN3CC2CC2)[C@H]1O5 [Naltrexone]
weight loss in monotherapy ([3]; human, in vivo): does not cause weight loss in monotherapy

CCCCCCCCCCC[C@@H](C[C@@H]1OC(=O)[C@H]1CCCCCC)OC(=O)[C@H](CC(C)C)NC=O [Orlistat]
>%5 (percent of subjects who lost greater than 5%) ([4]; Duration 56 weeks): 48% | >%10 (percent of subjects who lost greater than 10%) ([4]; Duration 56 weeks): 17.9% | Weight loss ([4]; Duration 56 weeks): 6.2% and 4% and 8.5% | participants with 5% and more weight loss ([4]; Duration 56 weeks): 48% | participants with 10% and more weight loss ([4]; Duration 56 weeks): 17.9% | placebo-normalized weight loss ([3]; human, in vivo): ~2.5%

C[C@H]1[C@H](c2ccccc2)OCCN1C [Phendimetrazine]
Side effect(s) ([1]; subject 5, dosages of Table 26): None

CC(C)(N)Cc1ccccc1 [Phentermine]
Side effect(s) ([1]; subject 1, dosages of Table 18): Dry mouth | Side effect(s) ([1]; subject 2, dosages of Table 20): Dry mouth | Side effect(s) ([1]; subject 3, dosages of Table 22): None and Dry mouth | Side effect(s) ([1]; subject 4, dosages of Table 24): None | Side effect(s) ([1]; subject 5, dosages of Table 26): None | >%5 (percent of subjects who lost greater than 5%) ([4]; Duration 12 weeks): 95% | >%10 (percent of subjects who lost greater than 10%) ([4]; Duration 12 weeks): 62.5% | Weight loss ([4]; Duration 12 weeks): 8% and 7% | participants with 5% and more weight loss ([4]; Duration 12 weeks): 95% | participants with 10% and more weight loss ([4]; Duration 12 weeks): 62.5% | Weight loss ([4]; Duration 12 weeks, listed as phentermine): 8% and 7% | Weight loss ([4]; Duration 20 weeks): 9% | Weight loss ([4]; Duration 28 weeks): 6%

Cc1c(C(=O)NN2CCCCC2)nn(-c2ccc(Cl)cc2Cl)c1-c1ccc(Cl)cc1 [Rimonabant]
adverse psychiatric effects ([3]; human, in vivo): discontinued in 2009 due to serious adverse psychiatric effects | placebo-subtracted weight loss ([3]; human, in vivo): 2.6 to 6.3 kg

CCOC[C@@H]1[C@@H](c2ccc(Cl)c(Cl)c2)C[C@@H]2CC[C@H]1N2C [Tesofensine]
decrease of body weight ([3]; phase II study, dose-dependent): 4.4-10.4%

CC1(C)O[C@@H]2[C@@H](CO[C@@]3(COS(N)(=O)=O)OC(C)(C)O[C@@H]23)O1 [Topiramate]
tolerability within the regimen ([1]; in vivo): the least tolerated, and was discontinued in some cases

CC[C@H](C)[C@H](NC(=O)[C@H](Cc1ccccc1)NC(=O)[C@H](CCC(=O)O)NC(=O)[C@H](CCCCNC(=O)COCCOCCNC(=O)COCCOCCNC(=O)CC[C@H](NC(=O)CCCCCCCCCCCCCCCCC(=O)O)C(=O)O)NC(=O)[C@H](C)NC(=O)[C@H](C)NC(=O)[C@H](CCC(N)=O)NC(=O)CNC(=O)[C@H](CCC(=O)O)NC(=O)[C@H](CC(C)C)NC(=O)[C@H](Cc1ccc(O)cc1)NC(=O)[C@H](CO)NC(=O)[C@H](CO)NC(=O)[C@@H](NC(=O)[C@H](CC(=O)O)NC(=O)[C@H](CO)NC(=O)[C@@H](NC(=O)[C@H](Cc1ccccc1)NC(=O)[C@@H](NC(=O)CNC(=O)[C@H](CCC(=O)O)NC(=O)C(C)(C)NC(=O)[C@@H](N)Cc1cnc[nH]1)[C@@H](C)O)[C@@H](C)O)C(C)C)C(=O)N[C@@H](C)C(=O)N[C@@H](Cc1c[nH]c2ccccc12)C(=O)N[C@@H](CC(C)C)C(=O)N[C@H](C(=O)N[C@@H](CCCNC(=N)N)C(=O)NCC(=O)N[C@@H](CCCNC(=N)N)C(=O)NCC(=O)O)C(C)C [semaglutide]
Side effect(s) ([1]; in vivo): constipation

CC[C@H](C)[C@H](NC(=O)[C@H](C)NC(=O)[C@H](CC(=O)O)NC(=O)[C@H](C)NC(=O)[C@@H](N)Cc1ccc(O)cc1)C(=O)N[C@@H](Cc1ccccc1)C(=O)N[C@H](C(=O)N[C@@H](CC(N)=O)C(=O)N[C@@H](CO)C(=O)N[C@@H](Cc1ccc(O)cc1)C(=O)N[C@@H](CCCNC(=N)N)C(=O)N[C@@H](CCCCN)C(=O)N[C@H](C(=O)N[C@@H](CC(C)C)C(=O)NCC(=O)N[C@@H](CCC(N)=O)C(=O)N[C@@H](CC(C)C)C(=O)N[C@@H](CO)C(=O)N[C@@H](C)C(=O)N[C@@H](CCCNC(=N)N)C(=O)N[C@@H](CCCCN)C(=O)N[C@@H](CC(C)C)C(=O)N[C@@H](CC(C)C)C(=O)N[C@@H](CCC(N)=O)C(=O)N[C@@H](CC(=O)O)C(=O)N[C@H](C(=O)N[C@@H](CCSC)C(=O)N[C@@H](CO)C(=O)N[C@@H](CCCNC(=N)N)C(N)=O)[C@@H](C)CC)C(C)C)[C@@H](C)O [sermorelin]
Side effect(s) ([1]; in vivo): None

Novo Nordisk Wegovy ™ semaglutide weight loss medication
12 weeks % weight change ([5]; Wegovy Study 1, baseline mean body weight 105.4 kg): −6% | 36 weeks % weight change ([5]; Wegovy Study 1): −12% | 12 weeks % weight change ([5]; Wegovy Study 2, baseline mean body weight 99.9 kg): −4.5% | 36 weeks % weight change ([5]; Wegovy Study 2): −9% | 12 weeks % weight change ([5]; Wegovy Study 3, baseline mean body weight 106.9 kg): −7% | 36 weeks % weight change ([5]; Wegovy Study 3): −13% | 12 weeks % weight change ([5]; Wegovy Study 4, baseline mean body weight 107.2 kg): −5.5% | 36 weeks % weight change ([5]; Wegovy Study 4): −12%

dulaglutide
Side effect(s) ([1]; in vivo): constipation | average weight lost ([6]; 1.5 mg once weekly with ≥1500 mg/day metformin): 6.6 pounds | average weight lost ([6]; 3.0 mg once weekly with ≥1500 mg/day metformin): 8.4 pounds | average weight lost ([6]; 4.5 mg once weekly with ≥1500 mg/day metformin): 1.1 pounds

leptin: 167 amino acid hormone (SEQ ID NO:3)
lowering of body weight by supplementation ([3]; obese individuals): has not been shown to be effective to lower body weight in obese individuals

B1: recombinant GDF15: Macrophage inhibitory cytokine 1 (SEQ ID NO:33) (protein, listed as Homo sapiens)
chain: MPGQELRTVNGSQMLLVLLVLSWLPHGGALSLAEASRASFPGPSELHSEDSRFRELRKRYEDLLTRLRANQSWEDSNTDLVPAPAVRILTPEVRLGSGGHLHLRISRAALPEGLPEASRLHRALFRLSPTASRSWDVTRPLRRQLSLARPQAPALHLRLSPPPSQSDQLLAESSSARPQLELHLRPQAARGRRRARARNGDHCPLGPGRCCRLHTVRASLEDLGWADWVLSPREVQVTMCIGACPSQFRAANMHAQIKTSLHRLKPDTVPAPCCVPASYNPMVLIQKTDTGVSLQTYDDLLAKDCHCI
modifications: Macrophage inhibitory cytokine 1 (MIC1 or GDF15)
body weight ([2]; exogenous administration, diet-induced obese mice and non-human primates): decreases body weight in diet-induced obese mice and non-human primates
